Measured values: patent US20240270762A1, “PENICILLIN-BINDING PROTEIN INHIBITORS” (priority 2021, published 2024)
≈ marks a conversion by molar mass, not a printed value.

Key:
E. coli AG100A = assay: Broth microdilution MIC in CAMHB; assay type: cell-based; details: Escherichia coli, read-out: MIC E. coli AG100A
A. baumannii PBP1a = biological target: T1, A. baumannii PBP1a (Acinetobacter baumannii, UniProt A0ABX6CK30); assay: Bocillin-FL competition binding via gel filtration, A. baumannii PBP1a; details: competition binding assay using Bocillin-FL via gel filtration; read-out: A. baumannii PBP1a Potency
T1 sequence (A0ABX6CK30 1-851): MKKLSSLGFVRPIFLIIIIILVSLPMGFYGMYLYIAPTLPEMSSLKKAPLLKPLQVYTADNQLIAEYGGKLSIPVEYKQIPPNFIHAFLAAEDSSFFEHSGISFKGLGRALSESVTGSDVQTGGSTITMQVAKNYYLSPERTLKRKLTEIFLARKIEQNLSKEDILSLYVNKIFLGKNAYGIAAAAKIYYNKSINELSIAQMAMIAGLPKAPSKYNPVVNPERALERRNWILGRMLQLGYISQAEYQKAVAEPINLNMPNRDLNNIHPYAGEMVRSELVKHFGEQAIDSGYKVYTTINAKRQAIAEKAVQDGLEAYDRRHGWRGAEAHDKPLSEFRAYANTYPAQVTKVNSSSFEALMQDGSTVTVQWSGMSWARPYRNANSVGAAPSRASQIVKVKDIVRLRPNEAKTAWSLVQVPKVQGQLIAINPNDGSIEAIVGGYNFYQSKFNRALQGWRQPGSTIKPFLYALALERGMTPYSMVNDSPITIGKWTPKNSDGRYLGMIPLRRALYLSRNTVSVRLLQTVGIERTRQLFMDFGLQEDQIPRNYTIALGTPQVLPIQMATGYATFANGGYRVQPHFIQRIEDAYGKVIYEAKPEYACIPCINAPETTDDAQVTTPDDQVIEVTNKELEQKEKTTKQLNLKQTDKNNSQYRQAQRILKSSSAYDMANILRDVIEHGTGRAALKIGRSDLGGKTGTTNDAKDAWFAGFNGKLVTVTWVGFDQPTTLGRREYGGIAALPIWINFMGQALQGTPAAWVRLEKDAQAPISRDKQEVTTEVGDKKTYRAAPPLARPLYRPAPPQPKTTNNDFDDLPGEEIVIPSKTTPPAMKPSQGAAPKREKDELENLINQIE
Outline: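 Competitive equilibrium binding; reporter Bocillin-FL. PBP + inhibitor (titration) pre-incubated → Bocillin-FL, 15 min → gel filtration → fluorescence. EC50 from Hill fit of fraction bound vs [inhibitor].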

P. aeruginosa ATCC 27853 = assay: microbe, parasite or virus in culture; assay type: cell-based; details: Pseudomonas aeruginosa, ATCC27853, read-out: MIC P. aeruginosa ATCC 27853
[1] = biological target: T2, PBP1a from Acinetobacter baumannii (ATCC 19606) (Acinetobacter baumannii, UniProt A0ABX6CK30); assay: Bocillin-FL fluorescence polarization competition binding, A. baumannii PBP1a; details: fluorescence polarization competition binding assay using Bocillin-FL; read-out: A. baumannii PBP1a Potency
T2 sequence (A0ABX6CK30 1-851): T1 sequence (A0ABX6CK30 1-851)
Outline: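 Purified PBP was preincubated with inhibitor (E. coli PBP3 1.5 μM, 30 min; P. aeruginosa PBP3 0.75 μM, A. baumannii PBP3 0.2 μM and PBP1a 1 μM, 15 min), then Bocillin-FL (0.1 μM; 0.05 μM for PBP1a) added and FP read up to 60 min. EC50 = 50% loss of bound probe.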

P. aeruginosa CDC-0110 = assay: microbe, parasite or virus in culture; assay type: cell-based; details: Pseudomonas aeruginosa, CDC0110, read-out: Minimum inhibitory concentration, P. aeruginosa CDC-0110

Structure (SMILES) | MIC (E. coli AG100A) [µg/mL] | EC50 (A. baumannii PBP1a) [µM] | MIC (P. aeruginosa ATCC 27853) [µg/mL] | IC50 [1] [µM] | MIC (P. aeruginosa CDC-0110) [µg/mL]
O=C(O)c1c(F)ccc2c1OB(O)[C@@H](NC(=O)[C@H](NC(=O)N1CCN(Cc3ccc(O)c(O)c3Cl)C(=O)C1=O)c1ccc(P(=O)(O)O)cc1)C2 (single isomer, unassigned) [Example 160] | < 1 | < 10 | < 1 |  | 
O=C(O)c1cccc2c1OB(O)[C@@H](NC(=O)C(NC(=O)N1CCN(Cc3cc(F)c(O)c(O)c3Cl)C(=O)C1=O)c1ccc(P(=O)(O)O)cc1)C2 (stereo partly drawn) [Example 164, (3R)-3-(2-(4-(2-chloro-5-fluoro-3,4-dihydroxybenzyl)-2,3-dioxopiperazine-1-carboxamido)-2-(4-phosphonophenyl)acetamido)-2-hydroxy-3,4-dihydro-2H-benzo[e][1,2]oxaborinine-8-carboxylic acid] |  | < 10 |  | > 250 | 
O=C(O)c1c(F)ccc2c1OB(O)[C@@H](NC(=O)C(NC(=O)N1CCN(C3CCN(C(=O)Nc4ccc(F)c(O)c4F)CC3)C1=O)c1cc(F)c(O)c(O)c1Cl)C2 (stereo partly drawn) [Example 452, (3R)-3-(2-(2-chloro-5-fluoro-3,4-dihydroxyphenyl)-2-(3-(1-((2,4-difluoro-3-hydroxyphenyl)carbamoyl)piperidin-4-yl)-2-oxoimidazolidine-1-carboxamido)acetamido)-7-fluoro-2-hydroxy-3,4-dihydro-2H-benzo[e][1,2]oxaborinine-8-carboxylic acid] |  | 10 to 50 |  | > 250 | 
O=C(O)c1c(F)ccc2c1OB(O)[C@@H](NC(=O)C(NC(=O)N1CCN(C3CCN(C(=O)Nc4cc(O)ccc4F)CC3)C(=O)C1=O)c1cc(F)c(O)c(O)c1Cl)C2 (stereo partly drawn) [Example 479, (3R)-3-(2-(2-chloro-5-fluoro-3,4-dihydroxyphenyl)-2-(4-(1-((2-fluoro-5-hydroxyphenyl)carbamoyl)piperidin-4-yl)-2,3-dioxopiperazine-1-carboxamido)acetamido)-7-fluoro-2-hydroxy-3,4-dihydro-2H-benzo[e][1,2]oxaborinine-8-carboxylic acid] |  | 10 to 50 |  | > 250 | 
O=C(O)c1c(F)ccc2c1OB(O)[C@@H](NC(=O)C(NC(=O)N1CCN(C3CCN(C(=O)Nc4ccc(F)c(O)c4)CC3)C(=O)C1=O)c1cc(F)c(O)c(O)c1Cl)C2 (stereo partly drawn) [Example 480, (3R)-3-(2-(2-chloro-5-fluoro-3,4-dihydroxyphenyl)-2-(4-(1-((4-fluoro-3-hydroxyphenyl)carbamoyl)piperidin-4-yl)-2,3-dioxopiperazine-1-carboxamido)acetamido)-7-fluoro-2-hydroxy-3,4-dihydro-2H-benzo[e][1,2]oxaborinine-8-carboxylic acid] |  | < 10 |  | > 250 | 
O=C(O)c1c(F)ccc2c1OB(O)[C@@H](NC(=O)C(NC(=O)N1CCN(C3CCN(C(=O)Nc4cc(O)cc(F)c4)CC3)C(=O)C1=O)c1cc(F)c(O)c(O)c1Cl)C2 (stereo partly drawn) [Example 481, (3R)-3-(2-(2-chloro-5-fluoro-3,4-dihydroxyphenyl)-2-(4-(1-((3-fluoro-5-hydroxyphenyl)carbamoyl)piperidin-4-yl)-2,3-dioxopiperazine-1-carboxamido)acetamido)-7-fluoro-2-hydroxy-3,4-dihydro-2H-benzo[e][1,2]oxaborinine-8-carboxylic acid] |  | < 10 |  | > 250 | 
O=C(O)c1c(F)ccc2c1OB(O)[C@@H](NC(=O)[C@H](NC(=O)N1CCN(C3CCN(C(=O)Nc4cccc(O)c4Cl)CC3)C(=O)C1=O)c1cc(F)c(O)c(O)c1Cl)C2 [Example 482, (R)-3-((R)-2-(4-(1-((2-chloro-3-hydroxyphenyl)carbamoyl)piperidin-4-yl)-2,3-dioxopiperazine-1-carboxamido)-2-(2-chloro-5-fluoro-3,4-dihydroxyphenyl)acetamido)-7-fluoro-2-hydroxy-3,4-dihydro-2H-benzo[e][1,2]oxaborinine-8-carboxylic acid] |  | 10 to 50 |  | > 250 | 
O=C(O)c1c(F)ccc2c1OB(O)[C@@H](NC(=O)C(NC(=O)N1CCN(C3CCN(C(=O)Nc4cc(O)ccc4Cl)CC3)C(=O)C1=O)c1cc(F)c(O)c(O)c1Cl)C2 (stereo partly drawn) [Example 483, (3R)-3-(2-(2-chloro-5-fluoro-3,4-dihydroxyphenyl)-2-(4-(1-((2-chloro-5-hydroxyphenyl)carbamoyl)piperidin-4-yl)-2,3-dioxopiperazine-1-carboxamido)acetamido)-7-fluoro-2-hydroxy-3,4-dihydro-2H-benzo[e][1,2]oxaborinine-8-carboxylic acid] |  | < 10 |  | > 250 | 
O=C(O)c1c(F)ccc2c1OB(O)[C@@H](NC(=O)C(NC(=O)N1CCN(C3CCN(C(=O)Nc4cc(O)cc(Cl)c4)CC3)C(=O)C1=O)c1cc(F)c(O)c(O)c1Cl)C2 (stereo partly drawn) [Example 484, (3R)-3-(2-(2-chloro-5-fluoro-3,4-dihydroxyphenyl)-2-(4-(1-((3-chloro-5-hydroxyphenyl)carbamoyl)piperidin-4-yl)-2,3-dioxopiperazine-1-carboxamido)acetamido)-7-fluoro-2-hydroxy-3,4-dihydro-2H-benzo[e][1,2]oxaborinine-8-carboxylic acid] |  | < 10 |  | > 250 | 
O=C(O)c1c(F)ccc2c1OB(O)[C@@H](NC(=O)C(NC(=O)N1CCN(C3CCN(C(=O)Nc4c(F)ccc(O)c4F)CC3)C(=O)C1=O)c1cc(F)c(O)c(O)c1Cl)C2 (stereo partly drawn) [Example 487, (3R)-3-(2-(2-chloro-5-fluoro-3,4-dihydroxyphenyl)-2-(4-(1-((2,6-difluoro-3-hydroxyphenyl)carbamoyl)piperidin-4-yl)-2,3-dioxopiperazine-1-carboxamido)acetamido)-7-fluoro-2-hydroxy-3,4-dihydro-2H-benzo[e][1,2]oxaborinine-8-carboxylic acid] |  | 10 to 50 |  |  | < 1
O=C(O)c1c(F)ccc2c1OB(O)[C@@H](NC(=O)C(NC(=O)N1CCN(C3CCN(C(=O)Nc4cc(O)c(F)c(F)c4)CC3)C(=O)C1=O)c1cc(F)c(O)c(O)c1Cl)C2 (stereo partly drawn) [Example 488, (3R)-3-(2-(2-chloro-5-fluoro-3,4-dihydroxyphenyl)-2-(4-(1-((3,4-difluoro-5-hydroxyphenyl)carbamoyl)piperidin-4-yl)-2,3-dioxopiperazine-1-carboxamido)acetamido)-7-fluoro-2-hydroxy-3,4-dihydro-2H-benzo[e][1,2]oxaborinine-8-carboxylic acid] |  | < 10 |  |  | < 1
O=C(O)c1c(F)ccc2c1OB(O)[C@@H](NC(=O)C(NC(=O)N1CCN(C3CCN(C(=O)Nc4ccc(Cl)c(O)c4F)CC3)C(=O)C1=O)c1cc(F)c(O)c(O)c1Cl)C2 (stereo partly drawn) [Example 489, (3R)-3-(2-(4-(1-((4-chloro-2-fluoro-3-hydroxyphenyl)carbamoyl)piperidin-4-yl)-2,3-dioxopiperazine-1-carboxamido)-2-(2-chloro-5-fluoro-3,4-dihydroxyphenyl)acetamido)-7-fluoro-2-hydroxy-3,4-dihydro-2H-benzo[e][1,2]oxaborinine-8-carboxylic acid] |  | < 10 |  |  | 2 to 4 (≈ 2.34 to 4.69 µM)
O=C(O)c1c(F)ccc2c1OB(O)[C@@H](NC(=O)C(NC(=O)N1CCN(C3CCN(C(=O)Nc4cc(O)c(F)cc4Cl)CC3)C(=O)C1=O)c1cc(F)c(O)c(O)c1Cl)C2 (stereo partly drawn) [Example 490, (3R)-3-(2-(4-(1-((2-chloro-4-fluoro-5-hydroxyphenyl)carbamoyl)piperidin-4-yl)-2,3-dioxopiperazine-1-carboxamido)-2-(2-chloro-5-fluoro-3,4-dihydroxyphenyl)acetamido)-7-fluoro-2-hydroxy-3,4-dihydro-2H-benzo[e][1,2]oxaborinine-8-carboxylic acid] |  | < 10 |  |  | 2 to 4 (≈ 2.34 to 4.69 µM)
